Experimental data as given in patent publication US11090319B2, “Therapeutic uses of pharmaceutical compositions comprising cyclic boronic acid ester derivatives” (Melinta Subsidiary Corp., priority 2010, dated 2021).
Like-named read-outs stand apart in the source and are kept apart here.

Key:
[1] = test system: ECL1004 Enterobacter cloacae NMC-A; test: Checkerboard assay, biapenem potentiation; settings: Biapenem MIC 8-fold; ECL1004 NMC-A class A
OXA-10, lysate of KP1007 = OXA-10, lysate of KP1007 (Pseudomonas aeruginosa, UniProt P14489); test: Inhibition of ceftazidime hydrolysis by bacterial lysate
[2] = test system: ECL1003 Enterobacter cloacae Hyper AmpC expression; test: Ceftazidime MIC with fixed concentration of BLI; format: cell-based; settings: derivative at 10 μg/mL
Method: (§1) Next, ceftazidime potentiation activity of several cyclic boronic acid ester derivatives was tested using a larger panel of strains expressing β-lactamase hydrolyzing enzymes. Ceftazidime MICs were determined alone and in the presence of fixed concentrations of various cyclic boronic acid ester derivatives.

[3] = test system: EC1016 Escherichia coli FOX-5; test: Ceftazidime MIC with fixed concentration of BLI; format: cell-based; settings: derivative at 10 μg/mL; EC1016 FOX-5
Method: as §1

[4] = test system: KP1006 Klebsiella pneumoniae CTX-M2; test: Ceftazidime MIC with fixed concentration of BLI; format: cell-based; settings: derivative at 10 μg/mL
Method: as §1

[5] = test system: EC1007 Escherichia coli KPC-3; test: Ceftazidime MIC with fixed concentration of BLI; format: cell-based; settings: derivative at 10 μg/mL; EC1007 KPC-3
Method: as §1

[6] = test system: KP1014 Klebsiella pneumoniae Vim-1; test: Ceftazidime MIC with fixed concentration of BLI; format: cell-based; settings: derivative at 10 μg/mL; KP1014 Vim-1
Method: as §1

[7] = test system: KP1013 Klebsiella pneumoniae CMY-2; test: Ceftazidime MIC with fixed concentration of BLI; format: cell-based; settings: derivative at 10 μg/mL; KP1013 CMY-2
Method: as §1

[8] = test system: ec307 Escherichia coli SHV-4; test: Ceftazidime MIC with fixed concentration of BLI; format: cell-based; settings: derivative at 10 μg/mL; ec307 SHV-4
Method: as §1

SA1000 Salmonella CMY-2 = test: Ceftazidime MIC with fixed concentration of BLI; format: cell-based; settings: derivative at 10 μg/mL; SA1000 CMY-2
Method: as §1

[9] = test system: CF1001 Citrobacter freundii Hyper AmpC expression; test: Ceftazidime MIC with fixed concentration of BLI; format: cell-based; settings: derivative at 10 μg/mL
Method: as §1

[10] = test system: AB1052 Acinetobacter baumannii OXA-24; test: Ceftazidime MIC with fixed concentration of BLI; format: cell-based; settings: derivative at 10 μg/mL; AB1052 OXA-24
Method: as §1

[11] = test system: AB1052 Acinetobacter baumannii OXA-24; test: Checkerboard assay, biapenem potentiation; settings: Biapenem MIC 8-fold; AB1052 OXA-24 class D
[12] = test system: KP1011 Klebsiella pneumoniae SHV-5; test: microbe, parasite or virus in culture; format: cell-based; settings: derivative at 10 μg/mL; KP1011 SHV-5
Method: as §1

KPC-2, lysate of KP1008 = KPC-2, lysate of KP1008 (Klebsiella pneumoniae, UniProt Q9F663); test: Inhibition of ceftazidime hydrolysis by bacterial lysate
[13] = target: CTX-M-15, lysate of KP1009 (Escherichia coli, UniProt Q9EXV5); test: as above
[14] = target: various β-lactamases (bacterial lysates) (Klebsiella pneumoniae, UniProt Q9F663); test: biochemical; format: biochemical; settings: aztreonam cleavage
[15] = target: various β-lactamases (bacterial lysates) (Pseudomonas aeruginosa, UniProt P14489); test: biochemical; format: biochemical; settings: AZT IC50 KP1007 OXA-10
[16] = target: various β-lactamases (bacterial lysates) (Escherichia coli, UniProt A0A649V088); test: biochemical; format: biochemical; settings: read-out: AZT IC50 KP1005 CTX-M-14
[17] = target: various β-lactamases (bacterial lysates) (Klebsiella pneumoniae, UniProt Q9F663, H272Y); test: biochemical; format: biochemical
[18] = target: various β-lactamases (bacterial lysates) (Salmonella typhimurium, UniProt P0A1V8); test: biochemical; format: biochemical; settings: AZT IC50 KPX1001 OXA-2
[19] = target: various β-lactamases (bacterial lysates) (Escherichia coli, UniProt A0A5R8T042); test: biochemical; format: biochemical; settings: read-out: AZT IC50 KP1009 CTX-M-15
SHV-12, lysate of KP1010 = SHV-12, lysate of KP1010 (Klebsiella pneumoniae, UniProt P0AD64, E235K/G234S/L31Q); test: Inhibition of ceftazidime hydrolysis by bacterial lysate
[20] = target: CTX-M-14, lysate of KP1005 (Escherichia coli, UniProt Q9L5C7); test: as above
SHV-2, lysate of ec306 = SHV-2, lysate of ec306 (Escherichia coli, UniProt P0A9Z7); test: as above
GES-1, lysate of pa 1063 = GES-1, lysate of pa 1063 (Klebsiella pneumoniae, UniProt Q9KJY7); test: as above
OXA-2, lysate of KX1000 = OXA-2, lysate of KX1000 (Salmonella typhimurium, UniProt P0A1V8); test: as above
SHV-18, lysate of KP1012 = SHV-18, lysate of KP1012 (Klebsiella pneumoniae, UniProt P0AD64, E235K/G234A/R39S); test: as above
SHV-5, lysate of ec308 = SHV-5, lysate of ec308 (Escherichia coli, UniProt P0AD63, E235K/G234S); test: as above
KPC-2, lysate of KP1004 = KPC-2, lysate of KP1004 (Klebsiella pneumoniae, UniProt Q9F663); test: as above
[21] = lysate KP1004 KPC-2, read-out: AZT IC50 KP1004 KPC-2 (converted)
[22] = lysate KP1008 KPC-2, read-out: AZT IC50 KP1008 KPC-2

various β-lactamases (bacterial lysates) (Escherichia coli, UniProt A0A5R8T042), sequence (A0A5R8T042 29-291): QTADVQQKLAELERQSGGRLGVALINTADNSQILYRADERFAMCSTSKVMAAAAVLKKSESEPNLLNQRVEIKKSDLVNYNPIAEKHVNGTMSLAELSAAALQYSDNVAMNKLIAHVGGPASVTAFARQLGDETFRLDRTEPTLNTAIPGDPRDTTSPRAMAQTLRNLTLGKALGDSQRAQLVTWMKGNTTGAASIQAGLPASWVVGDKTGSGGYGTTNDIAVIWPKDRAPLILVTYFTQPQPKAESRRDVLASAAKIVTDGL
CTX-M-15, lysate of KP1009, sequence (Q9EXV5 entry or part of it): as the sequence (A0A5R8T042 29-291) above

| SMILES | MPC8 [1] | IC50 (OXA-10, lysate of KP1007) [µM] | Ceftazidime MIC with cyclic boronic acid ester derivative [2] | Ceftazidime MIC with cyclic boronic acid ester derivative [3] | Ceftazidime MIC with cyclic boronic acid ester derivative [4] | Ceftazidime MIC with cyclic boronic acid ester derivative [5] | Ceftazidime MIC with cyclic boronic acid ester derivative [6] | Ceftazidime MIC with cyclic boronic acid ester derivative [7] | Ceftazidime MIC with cyclic boronic acid ester derivative [8] | Ceftazidime MIC with cyclic boronic acid ester derivative (SA1000 Salmonella CMY-2) | Ceftazidime MIC with cyclic boronic acid ester derivative [9] | Ceftazidime MIC with cyclic boronic acid ester derivative [10] | MPC8 [11] | Ceftazidime MIC with cyclic boronic acid ester derivative [12] | IC50 (KPC-2, lysate of KP1008) [µM] | IC50 [13] [µM] | IC50 [14, 21] [µM] | IC50 [14, 22] [µM] | IC50 [15] [µM] | IC50 [16] [µM] | further results |
| --- | --- | --- | --- | --- | --- | --- | --- | --- | --- | --- | --- | --- | --- | --- | --- | --- | --- | --- | --- | --- | --- |
| O=C(O)CC1CC[C@H](NC(=O)C2CC2)B(O)O1 (stereo partly drawn) [Compound 4, 2-((3R)-3-(cyclopropanecarboxamido)-2-hydroxy-1,2-oxaborinan-6-yl)acetic acid] | X (MPC8 of less than 0.16 μg/mL) | > 4.15 | Z (MIC of greater than 8 μg/mL) | Z (MIC of greater than 8 μg/mL) | X (MIC of 1 μg/mL or less) | X (MIC of 1 μg/mL or less) | Z (MIC of greater than 8 μg/mL) | Y (MIC of greater than 1 μg/mL to 8 μg/mL) | Z (MIC of greater than 8 μg/mL) | Y (MIC of greater than 1 μg/mL to 8 μg/mL) | Z (MIC of greater than 8 μg/mL) | Z (MIC of greater than 8 μg/mL) | Z (MPC8 of greater than 1 μg/mL) | X (MIC of 1 μg/mL or less) | < 0.415 | > 4.15 | < 2.07 | < 2.07 | > 8.3 | < 2.07 | IC50 [17]: < 2.07 µM; IC50 [18]: > 8.3 µM; IC50 [19]: 2.07 to 8.3 µM; IC50 (SHV-12, lysate of KP1010): > 4.15 µM; IC50 [20]: > 4.15 µM; IC50 (SHV-2, lysate of ec306): > 4.15 µM; IC50 (GES-1, lysate of pa 1063): 0.415 to 4.15 µM; IC50 (OXA-2, lysate of KX1000): > 4.15 µM; IC50 (SHV-18, lysate of KP1012): > 4.15 µM; IC50 (SHV-5, lysate of ec308): > 4.15 µM; IC50 (KPC-2, lysate of KP1004): < 0.415 µM |
| O=C(O)C[C@@H]1CC[C@H](NC(=O)Cc2ccccc2)B(O)O1 [Compound 6, 2-((3R,6S)-2-hydroxy-3-(2-phenylacetamido)-1,2-oxaborinan-6-yl)acetic acid] | Y (MPC8 of 0.16 μg/mL to 1 μg/mL) | > 3.44 | Z (MIC of greater than 8 μg/mL) | Z (MIC of greater than 8 μg/mL) | X (MIC of 1 μg/mL or less) | X (MIC of 1 μg/mL or less) | Z (MIC of greater than 8 μg/mL) | Y (MIC of greater than 1 μg/mL to 8 μg/mL) | Z (MIC of greater than 8 μg/mL) | X (MIC of 1 μg/mL or less) | Y (MIC of greater than 1 μg/mL to 8 μg/mL) | Z (MIC of greater than 8 μg/mL) | Z (MPC8 of greater than 1 μg/mL) | X (MIC of 1 μg/mL or less) | < 0.344 | 0.344 to 3.44 | < 1.72 | < 1.72 | > 6.87 | < 1.72 | IC50 [17]: < 1.72 µM; IC50 [18]: 1.72 to 6.87 µM; IC50 [19]: < 1.72 µM; IC50 (SHV-12, lysate of KP1010): > 3.44 µM; IC50 [20]: 0.344 to 3.44 µM; IC50 (SHV-2, lysate of ec306): 0.344 to 3.44 µM; IC50 (GES-1, lysate of pa 1063): 0.344 to 3.44 µM; IC50 (OXA-2, lysate of KX1000): 0.344 to 3.44 µM; IC50 (SHV-18, lysate of KP1012): 0.344 to 3.44 µM; IC50 (SHV-5, lysate of ec308): > 3.44 µM; IC50 (KPC-2, lysate of KP1004): < 0.344 µM |
